# Experimental data taken from publication PMC5218480 (PLoS ONE, 2017).
# System: MV-4-11 cells
# Assay: Gene expression microarray analysis (Affymetrix PrimeView) and GSEA
# Type: cell-based, human
# Set-up: RFU PODN (11730768_x_at) / Fold change /veh PODN (11730768_x_at) / RFU LINC00158 (11744669_a_at) / Fold change /veh LINC00158 (11744669_a_at) / RFU DUSP10 (11751237_a_at) / Fold change /veh DUSP10 (11751237_a_at) / RFU ID3 (11757404_x_at) / Fold change /veh ID3 (11757404_x_at) / RFU PLEKHG5 (11737974_s_at) / Fold change /veh PLEKHG5 (11737974_s_at) / RFU LRRC4B (11730491_at) / Fold change /veh LRRC4B (11730491_at) / RFU GIMAP4 (11747438_a_at) / Fold change /veh GIMAP4 (11747438_a_at) / RFU KRT8 (11758183_x_at) / Fold change /veh KRT8 (11758183_x_at) / RFU CNN1 (11734310_a_at) / Fold change /veh CNN1 (11734310_a_at) / RFU VPS37D (11726825_at) / Fold change /veh VPS37D (11726825_at) / RFU C10orf10 (11716522_x_at) / Fold change /veh C10orf10 (11716522_x_at) / RFU KIR2DL2 /// KIR2DL4 /// KIR2DL5A /// KIR2DL5B /// KIR2DS1 /// KIR2DS2 /// KIR2DS3 /// KIR2DS4 /// KIR3DL3 /// KIR3DL3 /// KIR3DS1 (11738374_at) / Fold change /veh KIR2DL2 /// KIR2DL4 /// KIR2DL5A /// KIR2DL5B /// KIR2DS1 /// KIR2DS2 /// KIR2DS3 /// KIR2DS4 /// KIR3DL3 /// KIR3DL3 /// KIR3DS1 (11738374_at) / RFU C1QL1 (11718748_at) / Fold change /veh C1QL1 (11718748_at) / RFU TMPRSS4 (11747572_a_at) / Fold change /veh TMPRSS4 (11747572_a_at) / RFU HAMP (11756126_x_at) / Fold change /veh HAMP (11756126_x_at) / RFU RNFT2 (11725882_a_at) / Fold change /veh RNFT2 (11725882_a_at) / RFU NR4A2 (11747474_a_at) / Fold change /veh NR4A2 (11747474_a_at) / RFU ABCC12 (11746883_a_at) / Fold change /veh ABCC12 (11746883_a_at) / RFU TMEM136 (11760407_x_at) / Fold change /veh TMEM136 (11760407_x_at) / RFU CLDN22 /// WWC2 (11732394_at) / Fold change /veh CLDN22 /// WWC2 (11732394_at) / RFU HLA-DPB1 (11760878_x_at) / Fold change /veh HLA-DPB1 (11760878_x_at) / RFU SPINT1 (11716480_a_at) / Fold change /veh SPINT1 (11716480_a_at) / RFU GAP43 (11754022_s_at) / Fold change /veh GAP43 (11754022_s_at) / RFU A4GNT (11735810_at) / Fold change /veh A4GNT (11735810_at) / RFU PRB3 (11715151_x_at) / Fold change /veh PRB3 (11715151_x_at) / RFU TUBB4B (11761932_at) / Fold change /veh TUBB4B (11761932_at) / RFU CAPN14 (11732068_a_at) / Fold change /veh CAPN14 (11732068_a_at) / RFU TMCC2 (11721928_a_at) / Fold change /veh TMCC2 (11721928_a_at) / RFU IRGQ (11745062_a_at) / Fold change /veh IRGQ (11745062_a_at) / RFU FAM174B (11720279_a_at) / Fold change /veh FAM174B (11720279_a_at) / RFU TMPRSS4 (11748680_a_at) / Fold change /veh TMPRSS4 (11748680_a_at) / RFU FAM212B (11763350_a_at) / Fold change /veh FAM212B (11763350_a_at) / RFU PLEKHG5 (11743358_a_at) / Fold change /veh PLEKHG5 (11743358_a_at) / RFU ZSCAN30 (11745921_a_at) / Fold change /veh ZSCAN30 (11745921_a_at) / RFU CMKLR1 (11741424_a_at) / Fold change /veh CMKLR1 (11741424_a_at) / RFU LOC101060620 /// MAPK8IP1 (11723275_at) / Fold change /veh LOC101060620 /// MAPK8IP1 (11723275_at) / RFU SPTSSB (11747773_x_at) / Fold change /veh SPTSSB (11747773_x_at) / RFU PRSS12 (11739890_at) / Fold change /veh PRSS12 (11739890_at) / RFU BIN1 (11741810_x_at) / Fold change /veh BIN1 (11741810_x_at) / RFU WNT11 (11732464_a_at) / Fold change /veh WNT11 (11732464_a_at) / RFU C10orf10 (11716521_a_at) / Fold change /veh C10orf10 (11716521_a_at) / RFU C5orf56 (11738089_at) / Fold change /veh C5orf56 (11738089_at) / RFU CYB561 (11721691_x_at) / Fold change /veh CYB561 (11721691_x_at) / RFU ANKRD19P (11752326_a_at) / Fold change /veh ANKRD19P (11752326_a_at) / RFU OR2T12 /// OR2T33 /// OR2T8 (11738714_s_at) / Fold change /veh OR2T12 /// OR2T33 /// OR2T8 (11738714_s_at) / RFU VCAN (11748164_a_at) / Fold change /veh VCAN (11748164_a_at) / RFU JSRP1 (11732532_at) / Fold change /veh JSRP1 (11732532_at) / RFU KRTAP10-11 (11738290_x_at) / Fold change /veh KRTAP10-11 (11738290_x_at) / RFU MYO3A (11730013_a_at) / Fold change /veh MYO3A (11730013_a_at) / RFU EBF3 (11725865_a_at) / Fold change /veh EBF3 (11725865_a_at) / RFU CAMK2N1 (11719241_x_at) / Fold change /veh CAMK2N1 (11719241_x_at) / RFU C5orf56 (11738088_a_at) / Fold change /veh C5orf56 (11738088_a_at) / RFU OLFML3 (11715873_a_at) / Fold change /veh OLFML3 (11715873_a_at) / RFU LOC100653217 /// NTM (11731650_a_at) / Fold change /veh LOC100653217 /// NTM (11731650_a_at) / RFU MAPK11 (11762145_a_at) / Fold change /veh MAPK11 (11762145_a_at) / RFU FIZ1 (11724087_x_at) / Fold change /veh FIZ1 (11724087_x_at) / RFU OASL (11726364_x_at) / Fold change /veh OASL (11726364_x_at) / RFU SOX15 (11748057_x_at) / Fold change /veh SOX15 (11748057_x_at) / RFU CD79A (11719716_a_at) / Fold change /veh CD79A (11719716_a_at) / RFU HIST1H1D (11736915_at) / Fold change /veh HIST1H1D (11736915_at) / RFU CASKIN2 (11723855_a_at) / Fold change /veh CASKIN2 (11723855_a_at) / RFU LOC730098 (11760151_x_at) / Fold change /veh LOC730098 (11760151_x_at) / RFU OR4N2 (11742367_at) / Fold change /veh OR4N2 (11742367_at) / RFU PRRT2 (11749266_a_at) / Fold change /veh PRRT2 (11749266_a_at) / RFU SNX32 (11753110_a_at) / Fold change /veh SNX32 (11753110_a_at) / RFU CDHR5 (11726645_a_at) / Fold change /veh CDHR5 (11726645_a_at) / RFU RCAN1 (11760418_a_at) / Fold change /veh RCAN1 (11760418_a_at) / RFU FAM167A (11723789_a_at) / Fold change /veh FAM167A (11723789_a_at) / RFU FAM26E (11764081_at) / Fold change /veh FAM26E (11764081_at) / RFU ISYNA1 (11749810_s_at) / Fold change /veh ISYNA1 (11749810_s_at) / RFU ACY1 (11761880_at) / Fold change /veh ACY1 (11761880_at) / RFU 11764098_at / Fold change /veh 11764098_at / RFU SAMD14 (11745864_x_at) / Fold change /veh SAMD14 (11745864_x_at) / RFU NPB (11741838_a_at) / Fold change /veh NPB (11741838_a_at) / RFU TMPRSS6 (11731388_a_at) / Fold change /veh TMPRSS6 (11731388_a_at) / RFU KRTAP10-2 (11738614_at) / Fold change /veh KRTAP10-2 (11738614_at) / RFU ARHGAP8 /// PRR5-ARHGAP8 (11727945_x_at) / Fold change /veh ARHGAP8 /// PRR5-ARHGAP8 (11727945_x_at) / RFU KRTAP5-7 /// NADSYN1 (11734609_at) / Fold change /veh KRTAP5-7 /// NADSYN1 (11734609_at) / RFU RASL12 (11751679_a_at) / Fold change /veh RASL12 (11751679_a_at) / RFU CDKN2B (11736163_a_at) / Fold change /veh CDKN2B (11736163_a_at) / RFU PRF1 (11729649_at) / Fold change /veh PRF1 (11729649_at) / RFU, ZNF638 /// ZNF638-IT1 / Fold change vs veh, ZNF638 /// ZNF638-IT1 / RFU, PANK3 / Fold change vs veh, PANK3 / RFU, SH3YL1 / Fold change vs veh, SH3YL1 / RFU, ZEB2 / Fold change vs veh, ZEB2 / RFU, NRIP1 / Fold change vs veh, NRIP1 / RFU, PTTG1IP / Fold change vs veh, PTTG1IP / RFU, CAPN2 / Fold change vs veh, CAPN2 / RFU, MED14 / Fold change vs veh, MED14 / RFU, SNORA58 / Fold change vs veh, SNORA58 / RFU, C1orf63 / Fold change vs veh, C1orf63 / RFU, LRRFIP1 / Fold change vs veh, LRRFIP1 / RFU, NDUFAF7 / Fold change vs veh, NDUFAF7 / RFU, SLC12A2 / Fold change vs veh, SLC12A2 / RFU, IBTK / Fold change vs veh, IBTK / RFU, ESF1 / Fold change vs veh, ESF1 / Fold change vs veh, TMEM50B / RFU, TAOK1 / Fold change vs veh, TAOK1 / RFU, ACBD3 / Fold change vs veh, ACBD3 / RFU, TMA16 / Fold change vs veh, TMA16 / RFU, RWDD3 / Fold change vs veh, RWDD3 / RFU, BCAT1 / Fold change vs veh, BCAT1 / RFU, EDEM3 / Fold change vs veh, EDEM3 / RFU, TMEM33 / Fold change vs veh, TMEM33 / RFU, WDR75 / Fold change vs veh, WDR75 / RFU, AHCTF1 / Fold change vs veh, AHCTF1 / RFU, TFRC / Fold change vs veh, TFRC / RFU, ZDHHC17 / Fold change vs veh, ZDHHC17 / RFU, NOM1 / Fold change vs veh, NOM1 / RFU, ARL8B / Fold change vs veh, ARL8B / RFU, ZBTB11 / Fold change vs veh, ZBTB11 / RFU, TAMM41 / Fold change vs veh, TAMM41 / RFU, KIAA1704 /// LOC100996395 / Fold change vs veh, KIAA1704 /// LOC100996395 / RFU, ING1 / Fold change vs veh, ING1 / RFU, TRMT61B / Fold change vs veh, TRMT61B / RFU, FUBP3 / Fold change vs veh, FUBP3 / RFU, TP53 / Fold change vs veh, TP53 / RFU, TNKS2 / Fold change vs veh, TNKS2 / RFU, ZFP14 / Fold change vs veh, ZFP14 / RFU, ACTR2 / Fold change vs veh, ACTR2 / RFU, PPP3R1 / Fold change vs veh, PPP3R1 / RFU, PIK3R1 / Fold change vs veh, PIK3R1 / RFU, HNRNPA1 / Fold change vs veh, HNRNPA1 / RFU, RNF170 / Fold change vs veh, RNF170 / RFU, ZNF28 / Fold change vs veh, ZNF28 / RFU, RNGTT / Fold change vs veh, RNGTT / RFU, OGT / Fold change vs veh, OGT / RFU, BRD1 / Fold change vs veh, BRD1 / RFU, MARS / Fold change vs veh, MARS / RFU, ZNF655 / Fold change vs veh, ZNF655 / RFU, FAHD1 / Fold change vs veh, FAHD1 / RFU, BDP1 / Fold change vs veh, BDP1 / RFU, LRRCC1 / Fold change vs veh, LRRCC1 / RFU, ARID1A / Fold change vs veh, ARID1A / RFU, ZNF146 / Fold change vs veh, ZNF146 / RFU, ZNF330 / Fold change vs veh, ZNF330 / RFU, GPN3 / Fold change vs veh, GPN3 / RFU, C9orf123 / Fold change vs veh, C9orf123 / RFU, N4BP2L2 / Fold change vs veh, N4BP2L2 / RFU, ARFIP1 / Fold change vs veh, ARFIP1 / RFU, FAM179B / Fold change vs veh, FAM179B / RFU, BCL10 / Fold change vs veh, BCL10 / RFU, UHRF1BP1L / Fold change vs veh, UHRF1BP1L / RFU, BET1 / Fold change vs veh, BET1 / RFU, CNOT2 / Fold change vs veh, CNOT2 / RFU, ZNF268 / Fold change vs veh, ZNF268 / Fold change vs veh, ZNF507 / RFU, DGCR2 / Fold change vs veh, DGCR2 / RFU, WDSUB1 / Fold change vs veh, WDSUB1 / Fold change vs veh, HSP90B1 /// MIR3652 / RFU, ADSS / Fold change vs veh, ADSS / RFU, GK / Fold change vs veh, GK / RFU, ZNF148 / Fold change vs veh, ZNF148 / RFU, TAF9 / Fold change vs veh, TAF9 / RFU, SLC1A5 / Fold change vs veh, SLC1A5 / RFU, SLMO2 / Fold change vs veh, SLMO2 / RFU, ABCC4 / Fold change vs veh, ABCC4 / RFU, LOC101060439 /// RAP1B / Fold change vs veh, LOC101060439 /// RAP1B / RFU, RFX7 / Fold change vs veh, RFX7 / RFU, GTPBP10 / Fold change vs veh, GTPBP10 / RFU, CNEP1R1 / Fold change vs veh, CNEP1R1 / RFU, BIVM-ERCC5 /// ERCC5 / Fold change vs veh, BIVM-ERCC5 /// ERCC5 / RFU, ILF3 / Fold change vs veh, ILF3 / RFU 11762660_at / Fold change /veh 11762660_at / RFU VCAN (11757783_s_at) / Fold change /veh VCAN (11757783_s_at) / RFU DDX43 (11728927_at) / Fold change /veh DDX43 (11728927_at) / RFU KRT8 (11758188_x_at) / Fold change /veh KRT8 (11758188_x_at) / RFU NKD1 (11759106_at) / Fold change /veh NKD1 (11759106_at) / RFU SRD5A1 (11742802_a_at) / Fold change /veh SRD5A1 (11742802_a_at) / RFU TPSAB1 /// TPSB2 (11721975_s_at) / Fold change /veh TPSAB1 /// TPSB2 (11721975_s_at) / RFU GSTM3 (11746129_a_at) / Fold change /veh GSTM3 (11746129_a_at) / RFU IL23R (11737362_x_at) / Fold change /veh IL23R (11737362_x_at) / RFU TMEM51 (11727254_a_at) / Fold change /veh TMEM51 (11727254_a_at) / RFU PIWIL2 (11732686_x_at) / Fold change /veh PIWIL2 (11732686_x_at) / RFU ORM1 (11744905_x_at) / Fold change /veh ORM1 (11744905_x_at) / RFU CCDC152 (11743942_at) / Fold change /veh CCDC152 (11743942_at) / RFU ECM1 (11717891_a_at) / Fold change /veh ECM1 (11717891_a_at) / RFU IL23R (11748794_a_at) / Fold change /veh IL23R (11748794_a_at) / RFU TNFAIP8L3 (11732012_x_at) / Fold change /veh TNFAIP8L3 (11732012_x_at) / RFU MBOAT4 (11741988_at) / Fold change /veh MBOAT4 (11741988_at) / RFU 11764193_at / Fold change /veh 11764193_at / RFU TMEM53 (11763286_at) / Fold change /veh TMEM53 (11763286_at) / RFU MAGEB2 (11727129_at) / Fold change /veh MAGEB2 (11727129_at) / RFU TMEM200A (11744735_a_at) / Fold change /veh TMEM200A (11744735_a_at) / RFU CCDC152 (11751479_a_at) / Fold change /veh CCDC152 (11751479_a_at) / RFU FAM211A (11726209_a_at) / Fold change /veh FAM211A (11726209_a_at) / RFU RGS16 (11746705_a_at) / Fold change /veh RGS16 (11746705_a_at) / RFU VCAN (11755009_s_at) / Fold change /veh VCAN (11755009_s_at) / RFU RHOB (11743442_s_at) / Fold change /veh RHOB (11743442_s_at) / RFU RGS16 (11720943_a_at) / Fold change /veh RGS16 (11720943_a_at) / RFU RGS16 (11720944_at) / Fold change /veh RGS16 (11720944_at) / RFU, VPS4B / Fold change vs veh, VPS4B / RFU, CREB1 / Fold change vs veh, CREB1 / RFU, DNAJC13 / Fold change vs veh, DNAJC13 / RFU, GNAQ / Fold change vs veh, GNAQ / RFU, CDK5R1 / Fold change vs veh, CDK5R1 / RFU, ZRANB3 / Fold change vs veh, ZRANB3 / RFU, CUL4A / Fold change vs veh, CUL4A / RFU, CCNY / Fold change vs veh, CCNY / RFU, UFL1 / Fold change vs veh, UFL1 / RFU, COG3 / Fold change vs veh, COG3 / RFU, DIAPH2 / Fold change vs veh, DIAPH2 / RFU, SKA2 / Fold change vs veh, SKA2 / RFU, AFF3 / Fold change vs veh, AFF3 / RFU, LMF1 / Fold change vs veh, LMF1 / RFU, IPO11 / Fold change vs veh, IPO11 / RFU, DFFB / Fold change vs veh, DFFB / RFU, FOXP1 / Fold change vs veh, FOXP1 / RFU, CARD8 / Fold change vs veh, CARD8 / RFU, STRN3 / Fold change vs veh, STRN3 / RFU, ADK / Fold change vs veh, ADK / RFU, RASSF2 / Fold change vs veh, RASSF2 / RFU, WIPF1 / Fold change vs veh, WIPF1 / RFU, LARP1B / Fold change vs veh, LARP1B / RFU, RASA1 / Fold change vs veh, RASA1 / RFU, RB1 / Fold change vs veh, RB1 / RFU, PPFIA1 / Fold change vs veh, PPFIA1 / RFU, MAT2A / Fold change vs veh, MAT2A / RFU, CCT5 / Fold change vs veh, CCT5 / RFU, WDR92 / Fold change vs veh, WDR92 / RFU, CUX1 / Fold change vs veh, CUX1 / RFU, TTC7A / Fold change vs veh, TTC7A / RFU, TMEM135 / Fold change vs veh, TMEM135 / RFU, DEPTOR / Fold change vs veh, DEPTOR / RFU, CPM / Fold change vs veh, CPM / RFU, DNAJB6 / Fold change vs veh, DNAJB6 / RFU, CACNA2D3 / Fold change vs veh, CACNA2D3 / RFU, DTX4 / Fold change vs veh, DTX4 / RFU, TFCP2 / Fold change vs veh, TFCP2 / RFU, GMCL1 /// GMCL1P1 / Fold change vs veh, GMCL1 /// GMCL1P1 / RFU, AEBP2 / Fold change vs veh, AEBP2 / RFU, SNHG1 /// SNORD22 /// SNORD25 /// SNORD26 /// SNORD27 /// SNORD28 /// SNORD29 /// SNORD31 / Fold change vs veh, SNHG1 /// SNORD22 /// SNORD25 /// SNORD26 /// SNORD27 /// SNORD28 /// SNORD29 /// SNORD31 / Fold change (Aza/veh), C12orf56 (ProbeSet 11735607_a_at) / Fold change (ACY-1035/veh), C12orf56 (ProbeSet 11735607_a_at) / Fold change (Aza/veh), FGFR1OP (ProbeSet 11751329_s_at) / Fold change (ACY-1035/veh), FGFR1OP (ProbeSet 11751329_s_at) / Fold change (Aza/veh), VPS36 (ProbeSet 11739960_a_at) / Fold change (ACY-1035/veh), VPS36 (ProbeSet 11739960_a_at) / RFU SYPL1 (11715823_x_at) / Fold change /veh SYPL1 (11715823_x_at) / RFU IGFBP7 (11715501_s_at) / Fold change /veh IGFBP7 (11715501_s_at) / RFU REEP3 (11722064_at) / Fold change /veh REEP3 (11722064_at) / RFU IGLL1 (11728026_x_at) / Fold change /veh IGLL1 (11728026_x_at): dose or concentration left out as unconfirmed
# Conditions: MV-4-11 cells, 48 hours
structure (smiles),measurement,value
Nc1ncn([C@@H]2O[C@H](CO)[C@@H](O)[C@H]2O)c(=O)n1 [azacitidine],Fold change /veh FAM26E (11764081_at),0.84
